Values quoted from earlier work as cited in US7884091B2, “Methods for treating delirium using glucocorticoid receptor-specific antagonists” (Corcept Therapeutics, Inc., priority 2001, dated 2011).

Conditions: in one study; Kawai (1989) supra

daily dose excreted in the urine: less than 0.5%
SMILES: CC#C[C@]1(O)CC[C@H]2[C@@H]3CCC4=CC(=O)CCC4=C3[C@@H](c3ccc(N(C)C)cc3)C[C@@]21C [mifepristone, 17-beta-hydroxy-11-beta-(4-dimethyl-aminophenyl)-17-alpha-(1-propynyl)-estra-4,9-dien-3-one]
